Experiments:
Conditions in all cases: 48 h
CU-ACC1 = assay: area under concentration-response curve (viability) (AUC (a.u.)); higher = less active
Method in brief: (§1)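 Library compounds were dispensed at 11 concentrations (23 nL each) onto three adrenocortical carcinoma cell lines in 1,536-well plates. Luminescence was recorded after 48 h using CellTiter-Glo, and signals were normalised per plate to vehicle and empty-well controls. Fitted concentration-response curves of inhibitory or non-responding classes only supplied the AC50 and area under the curve.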

NCI-H295R [1] = assay: as above
Method in brief: as §1

CU-ACC2 = assay: as above
Method in brief: as §1

NCI-H295R [2] = assay: AC50 viability; higher = less potent
Method in brief: as §1

| SMILES | area under concentration-response curve (CU-ACC1) | area under concentration-response curve (NCI-H295R [1]) | area under concentration-response curve (CU-ACC2) | AC50 viability (NCI-H295R [2]) |
| --- | --- | --- | --- | --- |
| CC(C)NC[C@@H](C(=O)N1CCN(c2ncnc3c2[C@H](C)C[C@H]3O)CC1)c1ccc(Cl)cc1 | 487 | 417 | 555 | 3.72 µM |
| CN1\C(=C(O)/C2=C(C=C(Cl)S2)[S+]1([O-])=O)C(=O)NC3=NC=CC=C3 | 434 | 380 | 421 | 0.118 µM |
| COc1cc([C@@H]2c3cc4c(cc3[C@H](O)[C@H]3COC(=O)[C@@H]23)OCO4)cc(OC)c1OC | 504 | 453 | 467 | 0.934 µM |
| CN1CCN([C@H]2CC[C@H](n3cc(-c4ccc(Oc5ccccc5)cc4)c4c(N)ncnc43)CC2)CC1 | 488 | 481 | 517 | 9.34 µM |
| CCC1=C[C@@H]2CN(C1)Cc1c([nH]c3ccccc13)[C@@](C(=O)OC)(c1cc3c(cc1OC)N(C)[C@H]1[C@@](O)(C(=O)OC)[C@H](OC(C)=O)[C@]4(CC)C=CCN5CC[C@]31[C@@H]54)C2 | 507 | 473 | 573 | 4.56 µM |
| COc1cc(OC)c(/C=C/[S+](=O)([O-])Cc2ccc(OC)c(NCC(=O)[O-])c2)c(OC)c1 | 464 | 386 | 479 | 0.059 µM |
| C/C(=C\c1csc(C)n1)[C@@H]1C[C@@H]2O[C@@H]2CCC[C@H](C)[C@H](O)[C@@H](C)C(=O)C(C)(C)[C@@H](O)CC(=O)O1 | 462 | 347 | 569 | 0.0132 µM |
| CCCCN(CCCC)CCC(O)c1cc2c(Cl)cc(Cl)cc2c2cc(C(F)(F)F)ccc12.Cl (centres undefined) | 538 | 548 | 615 | 23.5 µM |
| CCN1CCN(CC1)CC(=O)NC2=CC=C(C3=C2C4=C(S3)C=CC=C4)C5=C6O\C(=C/C(=O)C6=CC=C5)N7CCOCC7 | 555 | 494 | 610 | 2.57 µM |
| O=C(Nc1cccc(C(F)(F)F)c1)Nc1cc([S+](=O)([O-])NC2CC2)ccc1-c1ccsc1 | 525 | 514 | 568 | 23.5 µM |
| C=CCc1cccc(/C=N/NC(=O)CN2CCN(Cc3ccccc3)CC2)c1O | 523 | 587 | 650 | 26.3 µM |
| COc1ccccc1C(=O)Nc1cc2c(cc1N1CCCCC1)n(C)c(=O)n2C | 426 | 422 | 434 | 16.6 µM |
| CCOC(=O)[C@H](CCc1ccccc1)N[C@@H](C)C(=O)N1CCC[C@H]1C(=O)O | 300 | 417 | 458 | 10.5 µM |
| COc1ccc2c(c1OC)C(=O)O[C@H]2[C@H]1c2c(cc3c(c2OC)OCO3)CCN1C | 493 | 519 | 608 | 20.9 µM |
| CCN(CC)CCNC(=O)c1c(C)[nH]c(/C=C2\C(=O)Nc3ccc(F)cc32)c1C | 528 | 456 | 529 | 9.34 µM |
| CN1c2ccccc2C(=O)N2CCc3c([nH]c4ccccc34)C21 (centres undefined) | 506 | 512 | 633 | 2.63 µM |

| SMILES | area under concentration-response curve (CU-ACC1) | area under concentration-response curve (NCI-H295R [1]) | area under concentration-response curve (CU-ACC2) | AC50 viability (NCI-H295R [2]) |
| --- | --- | --- | --- | --- |
| C[C@@H]1COCCN1c1cc(C2([S@+](C)(=N)[O-])CC2)nc(-c2ccnc3[nH]ccc23)n1 | 524 | 525 | 491 | 16.6 µM |
| O=C(NC1CC1)c1cccc(-c2ccc3c(NC(=O)C4CC4)n[nH]c3c2)c1 | 495 | 496 | 542 | 20.9 µM |
| CC(=O)c1cnc2ccc(-c3cc(Cl)c(O)c(Cl)c3)nc2c1N[C@H]1CC[C@H](CN(C)C)CC1 | 491 | 373 | 433 | 0.959 µM |
| N#Cc1c(NC(=O)c2cccc3ccccc23)sc2c1CCCC2 | 480 | 458 | 551 | 0.372 µM |
| COc1ccc(N(C)c2nc(C)nc3ccccc23)cc1 | 491 | 401 | 410 | 0.00934 µM |
| Cc1cc(Nc2nc(N[C@@H](C)c3ncc(F)cn3)ncc2Cl)n[nH]1 | 472 | 488 | 544 | 14.8 µM |
| Cc1cc(-c2nc3cc(F)ccc3s2)ccc1NC(=O)[C@@H](N)CCCCN | 555 | 538 | 599 | 23.5 µM |
| CN1CCN(CC1)C2=CC3=C([NH]C(=N3)C/4=C(\N)C5=C(F)C=CC=C5NC4=O)C=C2 | 485 | 479 | 574 | 20.9 µM |
| COC(=O)[C@@H]1[C@H]2C[C@H]3c4[nH]c5ccccc5c4CCN3C[C@@H]2CC[C@@H]1O | 443 | 442 | 458 | 18.6 µM |
| C[C@H](CN(C)C)Oc1nc(Nc2cc3cccc(Cl)c3cn2)cnc1C#N | 491 | 456 | 585 | 14.8 µM |
| O=C1\C=C(OC2=C1SC=C2C3=CC=C4OCCOC4=C3)\N5CCOCC5 | 293 | 350 | 276 | 0.0742 µM |
| NC/1=N/C2=C([NH]C=N2)C(=S)N1 | 511 | 533 | 609 | 10.5 µM |
| Oc1ccc(Nc2nc(-c3ccc(Cl)cc3)cs2)cc1 | 403 | 474 | 496 | 16.6 µM |
| COc1ccc(-c2ccc3c(N4CCOCC4)nc(N4C[C@@H](C)O[C@@H](C)C4)nc3n2)cc1CO | 464 | 468 | 469 | 0.934 µM |
| CC(/C=C/[C@@H]1C[C@]1(C)c1ccc2c(c1)C(C)(C)CCC2(C)C)=C\C(=O)O | 525 | 538 | 650 | 18.6 µM |

Reference: the supplement of paper PMC10949913
